This is an account of results in patent US9938272B2, “Hydrazine compound as blood coagulation factor Xa inhibitor” (NORTH CHINA PHARMACEUTICAL COMPANY., LTD., priority 2014, dated 2018).

Holding throughout (format): biochemical
The target in test [1] is human Factor Xa (Homo sapiens (Human), UniProt P00742). Briefly: Human factor Xa chromogenic assay. As to conditions: substrate S-2222, read-out: hfXa Ki.
Test [2] deals with rat Factor Xa (Rattus norvegicus (Rat), UniProt Q63207). The test can be described thus: Rat factor Xa chromogenic assay. As to conditions: substrate S-2222, read-out: rfXa Ki.
For test [3], the target named is human thrombin (Homo sapiens (Human), UniProt P00734). The test can be described thus: Human thrombin assay. As to conditions: substrate S-2238.
In test [4] the target is human trypsin (Homo sapiens, UniProt P07477). The test can be described thus: Human trypsin assay. As to conditions: substrate S-2222.
The target of test [5] is prothrombinase (Homo sapiens (Human), UniProt P00742). Briefly: Prothrombinase assay (thrombin generation). As to conditions: human factor Xa with human platelets, prothrombin, substrate S-2238.

Where only a bound is given, the exact number is not on record here.

Chain of rat Factor Xa (Q63207 232-482): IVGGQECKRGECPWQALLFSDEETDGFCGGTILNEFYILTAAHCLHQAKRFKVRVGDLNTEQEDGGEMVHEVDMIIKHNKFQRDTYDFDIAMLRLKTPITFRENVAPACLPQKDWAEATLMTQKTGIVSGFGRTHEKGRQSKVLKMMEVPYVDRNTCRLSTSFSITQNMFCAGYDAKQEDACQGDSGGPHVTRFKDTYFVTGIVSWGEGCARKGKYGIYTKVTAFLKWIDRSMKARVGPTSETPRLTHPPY
Chain of rat Factor Xa (Q63207 41-180): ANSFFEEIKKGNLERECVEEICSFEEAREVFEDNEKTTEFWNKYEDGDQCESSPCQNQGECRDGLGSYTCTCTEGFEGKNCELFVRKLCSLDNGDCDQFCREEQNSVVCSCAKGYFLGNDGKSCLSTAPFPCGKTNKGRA
Chain of human Factor Xa (P00742 235-488): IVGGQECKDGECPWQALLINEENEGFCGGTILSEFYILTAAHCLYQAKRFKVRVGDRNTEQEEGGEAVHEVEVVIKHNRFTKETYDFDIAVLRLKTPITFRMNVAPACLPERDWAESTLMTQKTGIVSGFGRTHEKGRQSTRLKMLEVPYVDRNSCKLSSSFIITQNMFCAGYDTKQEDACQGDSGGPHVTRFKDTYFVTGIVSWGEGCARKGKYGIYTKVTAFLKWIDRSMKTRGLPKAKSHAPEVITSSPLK
Chain of human Factor Xa (P00742 41-179): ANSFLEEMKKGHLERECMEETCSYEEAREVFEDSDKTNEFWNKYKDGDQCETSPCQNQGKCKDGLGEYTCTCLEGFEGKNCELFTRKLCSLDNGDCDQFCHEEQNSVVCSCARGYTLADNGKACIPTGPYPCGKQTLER
Chain of prothrombinase (P00742 235-488): as the sequence (P00742 235-488) above
Chain of prothrombinase (P00742 41-179): as the sequence (P00742 41-179) above
Chain of prothrombinase (P12259 29-737 partner): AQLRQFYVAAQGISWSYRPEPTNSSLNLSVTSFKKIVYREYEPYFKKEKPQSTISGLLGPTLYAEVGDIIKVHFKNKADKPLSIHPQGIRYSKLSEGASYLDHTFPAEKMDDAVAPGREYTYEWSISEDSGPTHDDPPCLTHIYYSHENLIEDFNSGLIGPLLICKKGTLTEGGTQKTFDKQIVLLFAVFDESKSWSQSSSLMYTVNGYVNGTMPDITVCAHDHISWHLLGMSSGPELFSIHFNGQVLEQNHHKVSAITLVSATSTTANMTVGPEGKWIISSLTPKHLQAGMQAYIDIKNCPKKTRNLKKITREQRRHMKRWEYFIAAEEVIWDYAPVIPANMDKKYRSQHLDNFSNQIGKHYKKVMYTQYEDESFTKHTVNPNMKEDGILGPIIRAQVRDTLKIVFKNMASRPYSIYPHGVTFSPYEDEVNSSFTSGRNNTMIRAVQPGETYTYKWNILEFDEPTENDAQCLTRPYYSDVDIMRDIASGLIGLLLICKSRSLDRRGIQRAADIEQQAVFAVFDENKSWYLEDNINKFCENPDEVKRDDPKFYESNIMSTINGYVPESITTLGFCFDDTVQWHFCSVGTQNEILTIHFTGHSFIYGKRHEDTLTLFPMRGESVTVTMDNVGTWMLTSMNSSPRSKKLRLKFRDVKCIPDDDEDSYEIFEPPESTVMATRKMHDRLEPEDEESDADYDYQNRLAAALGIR
Chain of prothrombinase (P12259 1574-2224 partner): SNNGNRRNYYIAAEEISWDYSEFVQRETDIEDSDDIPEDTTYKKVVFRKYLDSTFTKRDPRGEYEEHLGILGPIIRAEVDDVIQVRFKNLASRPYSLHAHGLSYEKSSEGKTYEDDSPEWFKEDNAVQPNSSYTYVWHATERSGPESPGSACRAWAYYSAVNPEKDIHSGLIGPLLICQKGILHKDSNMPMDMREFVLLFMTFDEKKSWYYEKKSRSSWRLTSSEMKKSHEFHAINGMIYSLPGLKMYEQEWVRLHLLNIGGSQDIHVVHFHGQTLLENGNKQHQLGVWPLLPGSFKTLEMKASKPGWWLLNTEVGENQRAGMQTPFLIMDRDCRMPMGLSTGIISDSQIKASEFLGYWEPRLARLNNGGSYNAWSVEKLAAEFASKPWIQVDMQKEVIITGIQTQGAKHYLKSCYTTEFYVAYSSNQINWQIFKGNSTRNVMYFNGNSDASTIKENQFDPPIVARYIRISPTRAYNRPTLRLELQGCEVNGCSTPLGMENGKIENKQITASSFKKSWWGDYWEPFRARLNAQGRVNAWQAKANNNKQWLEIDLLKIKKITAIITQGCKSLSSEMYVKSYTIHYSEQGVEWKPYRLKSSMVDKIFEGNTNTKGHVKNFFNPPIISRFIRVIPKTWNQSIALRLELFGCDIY

As to `COc1ccc(-n2nc(C(N)=O)c3c2C(=O)N(C2CCN(N4CCOCC4=O)CC2)CC3)cc1` [Example 7, 1-(4-Methoxyphenyl)-7-oxo-6-(1-(3-oxomorpholino)piperidin-4-yl)-4,5,6,7-tetrahydro-1H-pyrazolo[3,4-c]pyridine-3-carboxamide], the inhibition constant Ki is at most 10 nM in test [1]; 10 to 50 nM in test [2]; at least 1000 nM in test [3]; at least 1000 nM in test [4]; at most 10 nM in test [5].

Take `COc1ccc(-n2nc(C(F)(F)F)c3c2C(=O)N(C2CCN(N4CCOCC4=O)CC2)CC3)cc1` [Example 1, 4-(4-(1-(4-Methoxyphenyl)-7-oxo-3-(trifluoromethyl)-4,5-dihydro-1H-pyrazolo[3,4-c]pyridin-6(7H)-yl)piperidin-1-yl)morpholin-3-one]: the Ki in test [1] is at most 10 nM; in test [2], at most 10 nM; in test [3], at least 1000 nM; in test [4], at least 1000 nM; in test [5] it was at most 10 nM.

With `COc1ccc(-n2nc(C(N)=O)c3c2C(=O)N(C2CCN(N4CCCCC4=O)CC2)CC3)cc1` [Example 4, 1-(4-Methoxyphenyl)-7-oxo-6-(2′-oxo-[1,1′-bipiperidin]-4-yl)-4,5,6,7-tetrahydro-1H-pyrazolo[3,4-c]pyridine-3-carboxamide], the Ki is at most 10 nM in test [1]; 10 to 50 nM in test [2]; at least 1000 nM in test [3]; at least 1000 nM in test [4]; at most 10 nM in test [5].

Take `O=C1c2c(c(C(F)(F)F)nn2-c2ccc3cc(Cl)ccc3c2)CCN1C1CCN(N2CCOCC2=O)CC1` [Example 24, 4-(4-(1-(6-Chloronaphthalen-2-yl)-7-oxo-3-(trifluoromethyl)-4,5-dihydro-1H-pyrazolo[3,4-c]pyridin-6(7H)-yl)piperidin-1-yl)morpholin-3-one]: the Ki in test [1] was at most 10 nM; in test [2], at most 10 nM; in test [3] it was at least 1000 nM; in test [4], at least 1000 nM; in test [5], at most 10 nM.

`COc1ccc(-n2nc(C(F)(F)F)c3c2C(=O)N(C2CCN(N4CCOCC4=O)CC2)CC3)cc1F` [Example 28, 4-(4-(1-(3-Fluoro-4-methoxyphenyl)-7-oxo-3-(trifluoromethyl)-4,5-dihydro-1H-pyrazolo[3,4-c]pyridin-6(7H)-yl)piperidin-1-yl)morpholin-3-one]: the Ki in test [1] was at most 10 nM; in test [2] it was at most 10 nM; in test [3], at least 1000 nM; in test [4] it was at least 1000 nM; in test [5], at most 10 nM.

As to `O=C1c2c(c(C(F)(F)F)nn2-c2ccc(OC(F)F)cc2)CCN1C1CCN(N2CCOCC2=O)CC1` [Example 23, 4-(4-(1-(4-(Difluoromethoxy)phenyl)-7-oxo-3-(trifluoromethyl)-4,5-dihydro-1H-pyrazolo[3,4-c]pyridin-6(7H)-yl)piperidin-1-yl)morpholin-3-one], the Ki in test [1] was at most 10 nM; in test [2], 10 to 50 nM; in test [3], at least 1000 nM; in test [4] it was at least 1000 nM; in test [5] it was at most 10 nM.

With `NC(=O)c1nn(-c2ccc(OC(F)F)cc2)c2c1CCN(C1CCN(N3CCOCC3=O)CC1)C2=O` [Example 11, 1-(4-(Difluoromethoxy)phenyl)-7-oxo-6-(1-(3-oxomorpholino)piperidin-4-yl)-4,5,6,7-tetra hydro-1H-pyrazolo[3,4-c]pyridine-3-carboxamide], the inhibition constant Ki in test [1] was at most 10 nM; in test [2], 10 to 50 nM; in test [3], at least 1000 nM; in test [4], at least 1000 nM; in test [5] it was at most 10 nM.

As to `NC(=O)c1nn(-c2ccc(OC(F)(F)F)cc2)c2c1CCN(C1CCN(N3CCOCC3=O)CC1)C2=O` [Example 10, 7-Oxo-6-(1-(3-oxomorpholino)piperidin-4-yl)-1-(4-(trifluoromethoxy)phenyl)-4,5,6,7-tetr a hydro-1H-pyrazolo[3,4-c]pyridine-3-carboxamide], the inhibition constant Ki in test [1] is at most 10 nM; in test [2] it was 50 to 1000 nM; in test [3], at least 1000 nM; in test [4], at least 1000 nM; in test [5] it was 50 to 1000 nM.

Usually Ki stands for a measure of affinity in units of concentration, obtained from inhibition or displacement.
